Consider 3 molecules from patent US9650616B2, “Methods for increasing grain yield” (University of Florida Research Foundation, Inc., priority 2014, dated 2017).

Experiment [1] has as its target T1, maize endosperm AGPase variant T142F (Zea mays, UniProt P55241+Q84PF5, T142F).
T1 construct: data of Boehlein et al., 2013
T1 sequence (P55241 46-516 T142F): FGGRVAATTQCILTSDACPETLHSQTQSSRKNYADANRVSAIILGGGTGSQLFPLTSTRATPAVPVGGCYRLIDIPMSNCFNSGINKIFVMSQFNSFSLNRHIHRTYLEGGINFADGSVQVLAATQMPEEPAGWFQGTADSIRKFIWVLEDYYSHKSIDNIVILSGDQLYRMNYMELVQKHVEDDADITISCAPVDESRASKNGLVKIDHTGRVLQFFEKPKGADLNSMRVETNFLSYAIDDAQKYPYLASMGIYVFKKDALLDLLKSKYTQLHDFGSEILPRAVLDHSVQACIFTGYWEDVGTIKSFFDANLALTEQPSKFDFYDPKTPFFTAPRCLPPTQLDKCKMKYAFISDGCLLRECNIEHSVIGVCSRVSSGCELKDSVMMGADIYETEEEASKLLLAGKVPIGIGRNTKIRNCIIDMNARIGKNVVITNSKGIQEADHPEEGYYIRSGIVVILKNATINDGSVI
T1 sequence (Q84PF5 1-474): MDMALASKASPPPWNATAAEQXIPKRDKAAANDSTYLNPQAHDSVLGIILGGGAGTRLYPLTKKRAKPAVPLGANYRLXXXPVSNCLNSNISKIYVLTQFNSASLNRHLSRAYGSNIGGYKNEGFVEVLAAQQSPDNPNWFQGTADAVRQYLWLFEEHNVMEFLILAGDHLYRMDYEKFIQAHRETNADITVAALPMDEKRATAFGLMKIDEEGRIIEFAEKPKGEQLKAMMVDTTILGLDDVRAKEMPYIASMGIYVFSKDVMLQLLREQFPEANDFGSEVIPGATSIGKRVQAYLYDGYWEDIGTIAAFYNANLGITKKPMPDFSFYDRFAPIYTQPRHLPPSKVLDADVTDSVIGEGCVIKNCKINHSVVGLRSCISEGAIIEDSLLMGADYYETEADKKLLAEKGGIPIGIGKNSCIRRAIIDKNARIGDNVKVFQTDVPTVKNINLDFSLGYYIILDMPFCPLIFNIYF
Briefly: Apparent kinetic constants with 3-PGA, 37° C., T142F. It is filed as biochemical. How it is done: (§1) An endpoint assay was used to determine the rate of the AGPase reaction by coupling the formation of PPi to a decrease in NADH concentration (Boehlein et al., 2008). […] The Michaelis constants (Km) were obtained by varying one substrate in the presence of saturating concentrations of the second substrate. The activation constants were obtained by varying the activator at fixed levels of both substrates. All reactions were performed at 37° C. and mixes were prewarmed before starting the reaction with enzyme. […] The absorbance at 340 nm was monitored after 30 min and the amount of PPi produced was determined from a standard curve using PPi in complete reaction mixtures lacking AGPase. Blank samples contained complete reaction mixtures without enzyme and the change in absorbance between the blank and the reaction was used to calculate the amount of PPi produced. […]
(§2) The apparent Michaelis constant and maximum velocity of each reaction was calculated from a V vs. S plots using nonlinear regression analysis and the following equation, v=VmaxS/(Km+S), where v is the measured velocity, Vmax is the maximum velocity, S is the substrate concentration. […]
(§3) Each mutant, comprising 1, 2, 3 or 4 changes, was grown in a large scale culture, expressed and purified according to standard procedures (Boehlein et al., 2005). […] Next, the activation constant, Ka, was determined for each of the mutant enzymes. […]

In experiment [2] the test system is maize endosperm AGPase, heat stable ISM mutants. Description: Apparent kinetic constants with 3-PGA, 37° C., ISM mutants collectively. It is filed as biochemical, Zea mays. The protocol:
An endpoint assay was used to determine the rate of the AGPase reaction by coupling the formation of PPi to a decrease in NADH concentration (Boehlein et al., 2008). […] The Michaelis constants (Km) were obtained by varying one substrate in the presence of saturating concentrations of the second substrate. The activation constants were obtained by varying the activator at fixed levels of both substrates. All reactions were performed at 37° C. and mixes were prewarmed before starting the reaction with enzyme. Reactions were terminated by boiling the reaction mixes for 2 minutes followed by development with 200 μl of coupling reagent (25 mM imidazole pH 7.4, 4 mM MgCl2, 1 mM EDTA, 0.2 mM NADH, 0.725 U aldolase, 0.4 U triose phosphate isomerase, 0.6 U glycerophosphate dehydrogenase, 1 mM fructose 6-phosphate and 0.8 μg purified PPi-PFK per reaction). The absorbance at 340 nm was monitored after 30 min and the amount of PPi produced was determined from a standard curve using PPi in complete reaction mixtures lacking AGPase. Blank samples contained complete reaction mixtures without enzyme and the change in absorbance between the blank and the reaction was used to calculate the amount of PPi produced. Reactions were linear with time and enzyme concentration.
The apparent Michaelis constant and maximum velocity of each reaction was calculated from a V vs. S plots using nonlinear regression analysis and the following equation, v=VmaxS/(Km+S), where v is the measured velocity, Vmax is the maximum velocity, S is the substrate concentration. The activation constant (Ka) was obtained using the following equation: V=Vmin+Vmax*(X)/(Ka+X), where Vmin is the velocity in the absence of activator and Vmax is the change in activity from Vmin to the total velocity. X is the activator concentration, Ka is the activation constant. All linear regression was carried out using the software program Prism (Graph Pad, San Diego Calif.).
Each mutant, comprising 1, 2, 3 or 4 changes, was grown in a large scale culture, expressed and purified according to standard procedures (Boehlein et al., 2005). […] Thus, the effects of these mutations on the kinetic constants are minimal. Next, the activation constant, Ka, was determined for each of the mutant enzymes. Here a decrease in the Ka for each of the mutants of approximately 3-6 fold was observed. This property appears to stem from the D161G change, and includes all enzymes which carry this mutation (Table 8). To be certain the effect is the result of the D161G mutation, and not the result of other single mutant changes, Q96R and Q96G were purified and characterized.

In experiment [3] the target is T2, maize endosperm AGPase, evolutionary mutant SH2-E (Zea mays, UniProt P55241+Q84PF5).
T2 construct: data of Boehlein et al., 2013
Description: Apparent kinetic constants with 3-PGA, 37° C., SH2-E. To be noted: read-out: G-1-P Km. It is filed as biochemical. How it is done:
as §1, §2, §3

Experiment [4] relates to maize endosperm AGPase, wild type (Maize-wt). To be noted: read-out: G-1-P Km, absence of 3-PGA; cited from earlier work.
The subject of experiment [5] is maize endosperm AGPase, wild type. To be noted: cited from earlier work.
Experiment [6] shares this test system. To be noted: cited from earlier work. The source holds these as a separate data set.
Experiment [7] addresses T1, maize endosperm AGPase variant T142F. To be noted: read-out: G-1-P Km, absence of 3-PGA; cited from earlier work.
Experiment [8] has as its target T2, maize endosperm AGPase, evolutionary mutant SH2-E. To be noted: read-out: G-1-P Km, absence of 3-PGA; cited from earlier work.
Experiment [9] concerns maize endosperm AGPase, evolutionary mutant SH2-E (SH2E). To be noted: cited from earlier work; for Ki: read-out: Ki (Pi).
Experiment [10] has the same test system. To be noted: cited from earlier work; for Ki: presence of 3-PGA, NC, read-out: Ki (Pi).
For experiment [11], the target named is T3, maize endosperm AGPase, large subunit variant GGR (Q96G, D161G, A443R; numbering of SEQ ID NO: 20) (Zea mays, UniProt P55241+Q84PF5, A443R/D161G/Q96G).
T3 sequence (P55241 46-516 A443R/D161G/Q96G): T1 sequence (P55241 46-516 T142F) with Q51G, F97T, D116G, A398R
T3 sequence (Q84PF5 1-474): T1 sequence (Q84PF5 1-474)
Description: Pi inhibition in the absence of 3-PGA, GGR. It is filed as biochemical. The protocol:
Next, the kinetics of the GGR mutant were further investigated by following Pi inhibition in the presence and absence of 3-PGA. Experiments were performed by keeping both substrates constant and non-saturating at several fixed concentrations of Pi.
A similar examination of the Pi inhibition was then followed with GGR in the absence of 3-PGA.

Experiment [12] deals with T3, maize endosperm AGPase, large subunit variant GGR (Q96G, D161G, A443R; numbering of SEQ ID NO: 20). Description: Pi inhibition in the presence of 3-PGA, GGR. It is filed as biochemical.
Description: Inhibition by Pi was then followed in the presence of the activator 3-PGA.
Where [13] appears, read: Maize wt, absence of 3-PGA, varied substrate ATP.
Where [14] appears, read: Maize wt, absence of 3-PGA, varied substrate G-1-P.
[15] abbreviates: Maize wt, presence of 3-PGA, varied substrate ATP.
Setting [16] is: Maize wt, presence of 3-PGA, varied substrate G-1-P.
[17] abbreviates: absence of 3-PGA, varied substrate G-1-P.

SMILES strings stand for the structures. Substitutions are numbered along the chain they refer to. Several values for one entry are separate records, joined by “and”; a condition that tells them apart may be missing. Equal values may be shown once. Read-outs that look alike come from different tables or passages of the source.

T2 sequence (P55241 46-516, change not shown, one chain of several): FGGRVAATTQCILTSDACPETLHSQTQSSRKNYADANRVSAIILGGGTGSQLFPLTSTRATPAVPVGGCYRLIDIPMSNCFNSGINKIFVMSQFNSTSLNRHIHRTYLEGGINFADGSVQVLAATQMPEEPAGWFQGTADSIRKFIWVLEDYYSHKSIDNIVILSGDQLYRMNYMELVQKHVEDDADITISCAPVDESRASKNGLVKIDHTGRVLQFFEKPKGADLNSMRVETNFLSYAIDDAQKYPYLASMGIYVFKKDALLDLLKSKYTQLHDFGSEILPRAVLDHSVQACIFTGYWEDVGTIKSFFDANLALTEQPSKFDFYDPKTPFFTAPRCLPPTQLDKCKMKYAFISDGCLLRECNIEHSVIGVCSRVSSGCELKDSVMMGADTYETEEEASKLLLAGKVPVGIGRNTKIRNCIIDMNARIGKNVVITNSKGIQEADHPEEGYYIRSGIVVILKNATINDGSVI

Take `O=C(O)[C@H](O)COP(=O)(O)O` [3-PGA]: the “Ka for 3-PGA” value in experiment [1] is “decreased Ka”. Besides, in [2] (heat stable mutant), the “affinity for the activator, 3-PGA” value is recorded as “increased affinity”. The “decrease in the Ka for 3-PGA” value in [2] (mutants carrying D161G versus wt maize) was 3-6 fold.
The term Km denotes the concentration of substrate that gives half-maximal velocity. On to `O=P(O)(O)O[C@H]1O[C@H](CO)[C@@H](O)[C@H](O)[C@H]1O` [G-1-P, glucose-1-phosphate], for which the Km was 30 µM in experiment [3]; 2800 µM in experiment [4]; 22200 µM in experiment [5] (read-out: Km (G-1-P), Maize wt, absence of 3-PGA, G-1-P varied, Pi inhibition, P-MT); above 20000 µM in experiment [5] (wt maize AGPase, absence of activator, Pi inhibition assay, read-out: Km for both substrates); 91 µM in experiment [6] (read-out: Km (G-1-P), Maize wt, presence of 3-PGA, G-1-P varied, Pi inhibition, P-MT); 90 µM in experiment [7]. Further, the Km in [8] is 30 µM; in [9] (read-out: Km (G-1-P), absence of 3-PGA, G-1-P varied, Pi inhibition), 200 µM; in experiment [10] (read-out: Km (G-1-P), presence of 3-PGA, G-1-P varied, Pi inhibition, NC) it was 63 µM. Further, the “largest variation in Km” value in experiment [2] (mutants versus wt maize, in the presence of 3-PGA) is recorded as “approximately two-fold”.
The term Ki denotes the equilibrium dissociation constant of an inhibitor or competing ligand from its target. Turning to `O=P(O)(O)O` [Pi, phosphate], the “Ki for Pi relative to normal concentration of Pi in maize endosperm (~6.5 mM)” value in experiment [11] is given as 10-20 times. Also, the Ki in experiment [11] (read-out: Ki for Pi with respect to both substrates) is 50 to 100 mM; in experiment [11] (varied substrate G-1-P, read-out: Ki (Pi)), 52.7 mM; in experiment [12] (in the presence of 3-PGA, read-out: Ki for Pi), 10 to 20 mM; in experiment [12] (presence of 3-PGA, varied substrate ATP, L-MT, read-out: Ki (Pi)) it was 10.7 mM; in [12] (presence of 3-PGA, varied substrate G-1-P, NC, read-out: Ki (Pi)), 20.7 mM; in experiment [5] (Maize wt, absence of 3-PGA, varied substrate ATP, P-MT, read-out: Ki (Pi)) it was 3.4 mM. Further, the Ki in experiment [5] (Maize wt, absence of 3-PGA, varied substrate G-1-P, P-MT, read-out: Ki (Pi)) is 5.1 mM; in experiment [5] (wt maize AGPase, absence of activator, read-out: Ki for Pi), 3 to 5 mM; in experiment [6] (Maize wt, presence of 3-PGA, varied substrate ATP, P-MT, read-out: Ki (Pi)) it was 0.37 mM; in [6] (Maize wt, presence of 3-PGA, varied substrate G-1-P, P-MT, read-out: Ki (Pi)) it was 1 mM; in [6] (wt AGPase, in the presence of 3-PGA, read-out: Ki for Pi), 0.5 to 1 mM; in experiment [9] (absence of 3-PGA, varied substrate ATP, NC) it was 20.9 mM. For the same molecule, the Ki in experiment [9] (setting [17]) was 0.055 mM; in [10] (varied substrate ATP), 7.8 mM; in experiment [10] (varied substrate G-1-P), 6.62 mM. For the same molecule, the “α (Pi interaction factor)” value in experiment [12] (presence of 3-PGA, varied substrate ATP) was 2.5 and 2.5 +/− 0.66; in experiment [5] (setting [13]), 0.063 +/− 0.034; in experiment [5] (setting [14]), 0.095 +/− 0.065; in experiment [6] (setting [15]) it was 4.61 +/− 0.70; in experiment [6] (setting [16]), 0.90 +/− 0.012; in [9] (setting [17]), 0.85 +/− 0.17. Also, the “β (partiality of Pi inhibition)” value was 0.52 +/− 0.17 in experiment [5] (setting [13]); 0.92 +/− 0.31 in experiment [5] (setting [14]); 0.83 +/− 0.037 in [6] (setting [15]); 0.52 +/− 0.023 in experiment [6] (setting [16]); 0.44 +/− 0.03 in [9] (setting [17]).
